Data published in publication PMC9930120 (Journal of Chemical Information and Modeling, 2023).
Where two headings read alike, the source gives them in different places.

What was measured:
[1] = target: T1, human CB2 (Homo sapiens, UniProt P34972); settings: cited from earlier work
[2] = target: T1, human CB2; assay: biochemical; type: binding; settings: for CB2 Ki (μM, 95% CI) / CB2 pKi ± SEM / Ki: [3H]CP-55,940 displacement, CHO-K1 membranes
Protocol: The compounds selected for the in vitro binding assay were purchased via MolPort, SIA, Riga, Latvia (Supporting Information S2). Membrane preparations from CHO-K1 cells expressing the human CB2 (ChemiSCREEN Membrane Preparation Recombinant Human CB2 Cannabinoid Receptor. Merck, USA) were incubated in duplicate with 0.8 nM [^3H]CP-55,940 (specific activity: 101 Ci/mmole, PerkinElmer, USA) in a 50 mM Tris–HCl, pH = 7.4 buffer supplemented with 2.5 mM EDTA, 5 mM MgCl2, 0.5 mg/mL BSA and increasing concentrations of the compounds tested. Compounds were dissolved in 50% DMSO and added to the reaction mixture at 10 concentrations equally spaced on a log scale (10^–10–10^–4.5 M). The final DMSO concentration was 5%. […] The reaction mixture (500 μL) was incubated for 1.5 h at 30 °C. Before harvesting, Brandel Whatman GF/B Filter Paper was presoaked with 0.5% polyethylenimine buffer for 30 min and then washed with 2 mL of 50 mM Tris–HCl buffer (pH = 7.4) containing 0.5% BSA to minimize nonspecific binding. The reaction was terminated by depositing the samples onto the filter paper with the Brandel M–24 Cell Harvester. Samples were then rapidly washed three times with 2 mL of wash buffer (50 mM Tris–HCl pH 7.4, 2.5 mM EDTA, 5 mM MgCl2, 0.5 mg/mL BSA) to separate the bound radioligand from free. Filters were then air-dried for 1.5 h at 60 °C. After drying, filter discs were placed on a flexible 24-well plate and 500 μL of EcoScint-20 scintillant (PerkinElmer, USA) was added to each well. Plates were counted (2 min per well) in a Trilux MicroBeta counter (PerkinElmer, USA). Data were analyzed with GraphPad Prism 5.0 software.

[3] = target: T2, human CB1 receptors (Homo sapiens, UniProt P21554); assay: CB1 radioligand displacement assay ([3H]CP-55,940); type: binding; settings: for CB1 Ki (μM, 95% CI) / CB1 pKi ± SEM: [3H]CP-55,940 displacement, Chem-1 membranes
T2 construct: purchased Merck; host or cells: Chem-1
T2 sequence (P21554 whole entry): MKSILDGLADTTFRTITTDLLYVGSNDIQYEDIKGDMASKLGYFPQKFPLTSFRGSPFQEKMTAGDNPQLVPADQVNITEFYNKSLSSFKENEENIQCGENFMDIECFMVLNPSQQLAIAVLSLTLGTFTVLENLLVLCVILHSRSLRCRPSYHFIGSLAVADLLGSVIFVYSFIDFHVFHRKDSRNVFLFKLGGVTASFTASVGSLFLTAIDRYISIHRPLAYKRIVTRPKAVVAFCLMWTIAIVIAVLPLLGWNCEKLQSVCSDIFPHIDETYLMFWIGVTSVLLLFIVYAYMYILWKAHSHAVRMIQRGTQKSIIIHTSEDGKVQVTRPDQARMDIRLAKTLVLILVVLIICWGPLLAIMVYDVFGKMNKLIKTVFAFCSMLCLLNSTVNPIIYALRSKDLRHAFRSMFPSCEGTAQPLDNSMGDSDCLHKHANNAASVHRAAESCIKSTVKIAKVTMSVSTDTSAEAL
Protocol: Membrane preparations from Chem-1 cells expressing the human CB1 receptors (ChemiSCREEN CB1 Cannabinoid Receptor Membrane Preparation. Merck, USA) were incubated in duplicate with 1 nM [^3H]CP-55,940 (specific activity: 108.5 Ci/mmole, PerkinElmer, USA) in a 50 mM Tris–HCl, pH = 7.4 buffer supplemented with 1 mM CaCl2, 5 mM MgCl2, 0.2% BSA and increasing concentrations of the compounds tested. Compounds were dissolved in 50% DMSO and added to the reaction mixture at 10 concentrations equally spaced on a log scale (10^–10–10^–4.5 M). The final DMSO concentration was 5%. […] The reaction mixture (500 μL) was incubated for 1.5 h at 30 °C. Before harvesting, Brandel Whatman GF/B Filter Paper was presoaked with 0.5% polyethylenimine buffer for 30 min and then washed with 2 mL of 50 mM Tris–HCl buffer (pH = 7.4) containing 0.5% BSA to minimize nonspecific binding. The reaction was terminated by depositing the samples onto the filter paper with the Brandel M-24 Cell Harvester. Samples were then rapidly washed three times with 2 mL of wash buffer (50 mM Tris–HCl pH 7.4, 500 mM NaCl, and 5 mM MgCl2) to separate the bound radioligand from the free one. The rest of the procedure was the same as for CB2.

[4] = target: T1, human CB2; assay: CB2 [35S]GTPγS assay; type: biochemical; set-up: purchased PerkinElmer ES-111-M400UA; host or cells: CHO-K1; settings: compounds at 10 μM, 100 nM CP-55,940 as stimulating ligand
Protocol: Ten micromolar concentrations of each compound were incubated in triplicate with membrane preparations from CHO-K1 cells expressing the human CB2 receptor (0.5 μg per well) (PerkinElmer, Cat. No. ES-111-M400UA) in an assay buffer containing 50 mM Tris–HCl, pH = 7.4, 0.2 mM EGTA, 3 mM MgCl2, 100 mM NaCl, 30 μM GDP and 1 mg/mL BSA) in the presence of 0.08 nM [^35S] guanosine 5′-[γ-thio]triphosphate ([^35S]GTPγS) (specific activity: 1250 Ci/mmole, PerkinElmer). Nonspecific binding was determined with 100 μM of unlabeled GTPγS. CP-55,940 (100 nM) was used as stimulating ligand. The final DMSO concentration in the assay was 5%. The reaction mixture was incubated for 60 min at 30 °C. Next, the samples were deposited under vacuum with the FilterMate Harvester (PerkinElmer, USA) onto Unifilter GF/B Plates (PerkinElmer, USA) presoaked with wash buffer (50 mM Tris–HCl, pH = 7.4). The samples were then rapidly washed with 2 mL of wash buffer. Filter plates were dried for 30 min at 50 °C and 40 μL of MicroScint PS (PerkinElmer, USA) scintillation fluid was added to each well. Radioactivity was counted in a Trilux MicroBeta^2 counter (PerkinElmer, USA). Data were analyzed with GraphPad Prism 5.0 software. Results were expressed as percent of basal [^35S]GTPγS binding in the presence of CP-55,940 from three separate experiments. Basal binding was set to 100%.

[5] = read-out: CB2 pKi ± SEM (converted)

T1 sequence (P34972 whole entry): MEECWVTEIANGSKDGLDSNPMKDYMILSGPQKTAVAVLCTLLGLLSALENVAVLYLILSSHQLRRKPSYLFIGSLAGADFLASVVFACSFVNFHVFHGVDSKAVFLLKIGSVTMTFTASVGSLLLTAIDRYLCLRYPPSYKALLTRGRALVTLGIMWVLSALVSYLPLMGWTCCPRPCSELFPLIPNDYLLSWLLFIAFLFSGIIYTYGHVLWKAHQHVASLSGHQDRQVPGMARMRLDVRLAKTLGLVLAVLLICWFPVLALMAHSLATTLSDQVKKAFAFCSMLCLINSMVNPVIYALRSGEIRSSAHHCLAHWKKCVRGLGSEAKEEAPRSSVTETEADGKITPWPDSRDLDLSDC

Structure (SMILES): N#Cc1c(Oc2cccc(OS(=O)(=O)CCCC(F)(F)F)c2)cccc1C(F)(F)F [BAY 59-3074]
- Ki [1]: 0.0455 µM

Structure (SMILES): Cc1cc(CSc2nnc(-c3nn(Cc4ccccc4)c(=O)c4ccccc34)o2)no1 [AS-6]
- CB2 Ki (μM, 95% CI) [2]: no activity
- CB2 pKi ± SEM [2]: no activity

Structure (SMILES): COc1ccc(C(=O)c2c(C)n(CCN3CCOCC3)c3cc(I)ccc23)cc1 [AM-630]
- Ki [1]: 0.0312 µM

Structure (SMILES): Cc1nn(-c2ccccc2)c(C)c1CCc1nn2c(-c3ccccc3F)nnc2s1 [AS-4]
- CB2 Ki (μM, 95% CI) [2]: no activity
- CB2 pKi ± SEM [2]: no activity

Structure (SMILES): COc1cccc(Oc2c(C)oc3c4c(ccc3c2=O)OCN(Cc2ccccn2)C4)c1 [AS-3]
- CB2 Ki (μM, 95% CI) [2]: no activity
- CB2 pKi ± SEM [2]: no activity

Structure (SMILES): Cc1nn(Cc2ccccc2)c(Cl)c1C(=O)NCc1ccccc1Cn1ccnc1 [AS-10]
- Ki ([2]; read-out: CB2 Ki (μM, 95% CI)): 17.9 µM
- Ki [2, 5]: 18.2 µM

Structure (SMILES): O=C(NCc1cccs1)c1cccc(Nc2nn3c(=O)c4ccccc4nc3s2)c1 [AS-11]
- CB2 Ki (μM, 95% CI) [2]: no activity
- CB2 pKi ± SEM [2]: no activity

Structure (SMILES): CCCCCc1cc(O)c(C/C=C(\C)CCC=C(C)C)c(O)c1 [Cannabigerol]
- Ki [1]: 2.92 µM

Structure (SMILES): COc1cccc(-c2nn(Cn3nc([N+](=O)[O-])cc3C)c(-c3cccc(OC)c3)c2Cl)c1 [AS-9]
- CB1 Ki (μM, 95% CI) [3]: no activity
- CB1 pKi ± SEM [3]: no activity
- Ki [2, 5]: 2.09 µM

Structure (SMILES): CCOC(=O)c1ccc(NC(=O)Cn2c(=O)nc(-c3ccccc3)c3cc(Cl)ccc32)cc1 [AS-2]
- CB2 Ki (μM, 95% CI) [2]: no activity
- CB2 pKi ± SEM [2]: no activity

Structure (SMILES): C[C@H](Sc1nnc2c3ccccc3nc(-c3ccccc3)n12)C(=O)NC[C@@H]1CCCO1 [AS-8]
- CB1 Ki (μM, 95% CI) [3]: no activity
- CB1 pKi ± SEM [3]: no activity
- Ki ([2]; read-out: CB2 Ki (μM, 95% CI)): 6.37 µM

Structure (SMILES): COc1ccc(C(=O)/C=C(\C(=O)c2ccccc2)c2ccccc2)cc1CN1CCOCC1 [AS-7]
- Ki [3]: 2.67 µM
- CB1 pKi ± SEM [3]: 5.57 ± 0.9
- CB2 intrinsic activity [4]: CB2 antagonists
- selectivity index for CB2 (Ki-CB1/Ki-CB2) [2]: > 40
- Ki ([2]; CB2 Ki (μM, 95% CI)): 0.065 µM
- Ki ([2]; CB2 pKi ± SEM): 0.0661 µM

Structure (SMILES): Cc1nn(-c2ccccc2)c(C)c1C(=O)C(=O)Nc1cc(F)ccc1NC(=O)c1ccccn1 [AS-13]
- CB2 Ki (μM, 95% CI) [2]: no activity
- CB2 pKi ± SEM [2]: no activity

Structure (SMILES): Cc1cc(C)n(C[C@@H](O)c2ccc(-n3c4c(c5ccccc5c3=O)C(=O)c3ccccc3-4)cc2)n1 [AS-16]
- CB2 Ki (μM, 95% CI) [2]: no activity
- CB2 pKi ± SEM [2]: no activity

Structure (SMILES): COCc1cc2nn(CC(=O)NCc3ccccc3Cl)c(=O)n2c(-c2ccccc2)n1 [AS-14]
- CB2 Ki (μM, 95% CI) [2]: no activity
- CB2 pKi ± SEM [2]: no activity

Structure (SMILES): CN(Cc1ccccn1)C(=O)c1c2ccccc2c2n1CCCN(Cc1ccccc1)C2=O [AS-15]
- CB2 Ki (μM, 95% CI) [2]: no activity
- CB2 pKi ± SEM [2]: no activity

Structure (SMILES): Cc1ccccc1-c1cc(C(=O)N2CCN(Cc3ccc4c(c3)OCO4)CC2)c2ccccc2n1 [AS-5]
- CB1 Ki (μM, 95% CI) [3]: no activity
- CB1 pKi ± SEM [3]: no activity
- CB2 intrinsic activity [4]: CB2 antagonists
- Ki [2, 5]: 0.209 µM

Structure (SMILES): Cc1cc(C(=O)Nc2cccc(C)c2C)c2c(C)nn(Cc3ccccc3)c2n1 [AS-12]
- CB2 Ki (μM, 95% CI) [2]: no activity
- CB2 pKi ± SEM [2]: no activity

Structure (SMILES): Cc1sc2nc(SCC(=O)c3ccc4c(c3)N(C)C(=O)CO4)nc(O)c2c1-c1ccccc1 [AS-1]
- CB2 Ki (μM, 95% CI) [2]: no activity
- CB2 pKi ± SEM [2]: no activity

Structure (SMILES): CCCC(C)(C)c1ccc2c(c1)OC(C)(C)[C@@H]1CC=C(C)C[C@@H]21 [JWH-133]
- Ki [1]: 0.0034 µM
